The data set has as its system human integrin α4. As to the kind of experiment: Inhibition of human integrin α4 protein levels by antisense oligonucleotides (LIPOFECTIN, flow cytometry with CD49d-FITC) in A375 melanoma cells. Also on record: % Inhib.: tested at 200 nM. It counts as cell-based. Conditions: for % Control (integrin α4 protein) / % Inhib (integrin α4 protein): Table 1, 200 nM oligonucleotide, 6 ug/ml LIPOFECTIN; for inhibition (Example 11): Example 11 assay; for % CONTROL 48 hr / % INHIB 48 hr / % CONTROL 72 hr / % INHIB 72 HR: Table 2, A375. The source says:
Integrin α4 protein levels can be quantitated in a variety of ways well known in the art, such as immunoprecipitation, Western blot analysis (immunoblotting), ELISA or fluorescence-activated cell sorting (FACS). Antibodies directed to integrin α4 can be identified and obtained from a variety of sources, such as the MSRS catalog of antibodies (Aerie Corporation, Birmingham, Mich.), or can be prepared via conventional antibody generation methods.
Target sites are indicated by nucleotide numbers, as given in the sequence source reference (GenBank accession no. L12002), to which the oligonucleotide binds. All compounds in Table 1 are 18 nucleotides in length, with a phosphorothioate backbone and a centered 10-base deoxynucleotide gap flanked by 2'-methoxyethoxy (2'MOE) wings. Human A375 melanoma cells (American Type Culture Collection, Manassas, Va.) were plated at 2000 cells/cm^2 two days before oligonucleotide treatment. Cells were treated with oligonucleotides at a dose of 200 nM oligonucleotide and 6 ug/ml LIPOFECTIN for four hours. Cells were incubated overnight and harvested with 2 mM EDTA in PBS. Cells were washed in 2% bovine serum albumin, 0.2% sodium azide in D-PBS at 4° C. Cells were centrifuged at 200×g, and the supernatant was decanted. […] Antibodies were incubated with the cells for 30 minutes at 4° C. in the dark, under gentle agitation. Cells were washed again as above and then resuspended in 0.3 ml of FacsFlow buffer with 0.5% formaldehyde. Cells were analyzed on Becton Dickinson FACScan. Results are expressed as percentage of control expression based on mean fluorescence intensity.
Cells were harvested with trypsin at 48 and 72 hours after oligonucleotide treatment and stained with 2 ug/ml CD49d-FITC as in the previous example.
Where backbones are mixed, linkages are shown as "s" for phosphorothioate (P=S or PS) and "o" for phosphodiester (P=O or PO). Where target region is indicated as `M62841,` oligonucleotides are targeted to the promotor region whose sequence is described in GenBank Accession No. M62841. Remaining oligonucleotides are targeted to the sequence described in Genbank Accession No. L12002 and their target sites on the L12002 sequence are indicated.
Target sites refer to nucleotide numbers on the target sequence (GenBank Accession No. L12002) to which the oligonucleotides hybridize.
Oligonucleotides were synthesized as "gapmers" consisting of a 9-nucleotide region of deoxynucleotides flanked by three 2'-O-methoxyethyl(2'-MOE) nucleotides on the 5' end and eight 2'-MOE nucleotides on the 3' end. 2'-MOE nucleotides are shown in bold in the table. Oligonucleotides were synthesized with phosphorothioate backbones throughout, and all cytosines are 5-methylcytosines.
Background: In flow cytometry, cells or beads pass a laser one at a time.

The mark [1] stands for this setting: Table 24, A375 cells, lipofectin, as Example 8.

Where only a bound is given, the exact number is not on record here.

As to “24446 (GCGCGCTCTCAGTGTCCA; chemistry not given here) [compound 24446]”, for the setting “A375 cells”, the “% Control (integrin α4 protein)” value is reported as 58% and the “% Inhib (integrin α4 protein)” value is recorded as 42%.
In the case of “24741 (AGACGTTATGGCTATTCTCT; phosphorothioate deoxy, further chemistry not given here) [compound 24741]”, the “% Control” value is, setting by setting: (Table 4, 10 nM) 109%; (Table 4, 30 nM) 113%; (Table 4, 100 nM) 125%; (Table 4, 300 nM) 127%.
Turning to “107234 (antisense CTTCCCAAGCCATGCGCTCT; chemistry not given here) [compound 107234]”, the “% Control” value under setting [1] was determined as 47%.
Regarding “26642 (TCAGGGTGGCTTAAAGAAGC; phosphorothioate, 2'-MOE/deoxy, further chemistry not given here) [compound 26642]”, the “inhibition (Example 11)” value (dose not stated) is recorded as not below 40%. Besides, the “% Control” value reads like this: (Table 6, 10 nM) 84%; (Table 6, 30 nM) 77%; (Table 6, 100 nM) 56%; (Table 6, 300 nM) 23%; under setting [1], 67%. The “% Inhib.” value reads like this: (Table 6, 10 nM) 16%; (Table 6, 30 nM) 23%; (Table 6, 100 nM) 44%; (Table 6, 300 nM (highest dose)) 77%; under setting [1], 33%.
For the substance “24740 (GAAGGCCCCTGGGGAACATT; phosphorothioate deoxy, further chemistry not given here) [compound 24740]”, the “% Control” value reads like this: (Table 4, 10 nM) 122%; (Table 4, 30 nM) 119%; (Table 4, 100 nM) 106%; (Table 4, 300 nM) 88%. Moreover, under “Table 4, 300 nM (highest dose)”, the “% Inhib.” value turned out to be 12%.
Take “24478 (GGCGGGCTGTTTTCCATT; chemistry not given here) [compound 24478]”: the “% Control (integrin α4 protein)” value (A375 cells) is 115%.
On to “24475 (GCCCTTATATGAGAAACA; phosphorothioate, 2'-MOE/deoxy, further chemistry not given here) [compound 24475]”, for which the “inhibition (Example 10)” value (Example 10 assay, dose not stated) was not below 40%. Besides, the “% Control (integrin α4 protein)” value (A375 cells) is given as 48%. Moreover, the “% CONTROL 48 hr” value reads like this: (50 nM) 60%; (100 nM) 31%; (200 nM) 30%; (400 nM) 39%. The “% INHIB 48 hr” value is, setting by setting: (50 nM) 40%; (100 nM) 69%; (200 nM) 70%; (400 nM) 61%. The “% CONTROL 72 hr” value came to 69% (50 nM), 44% (100 nM) and 52% (400 nM). In addition, the “% INHIB 72 HR” value is, setting by setting: (50 nM) 31%; (100 nM) 56%; (400 nM) 48%. In addition, the “% Control” value was 97% (Table 4, 10 nM); 73% (Table 4, 30 nM); 84% (Table 4, 100 nM); 55% (Table 4, 300 nM). In addition, the “% Inhib.” value worked out at 27% (Table 4, 30 nM); 16% (Table 4, 100 nM); 45% (Table 4, 300 nM (highest dose)).
As for “24463 (TACACAAACACTCTTCCT; chemistry not given here) [compound 24463]”, under “A375 cells”, the “% Control (integrin α4 protein)” value is given as 101%.
“107229 (antisense AGTCCGCAGAGCGCGGGATG; chemistry not given here) [compound 107229]”: under setting [1], the “% Control” value is given as 104%.
Still for that read-out and setting: under “107246 (antisense TAATCATCATTGCTTTTACT; chemistry not given here) [compound 107246]” stands 42%.
For “24744 (AGACGTTATGGCTATTCTCT; phosphorothioate, 2'-MOE, 5-methyl-C, further chemistry not given here) [compound 24744]”, the “% Control” value is recorded as 121% (Table 4, 10 nM); 110% (Table 4, 30 nM); 118% (Table 4, 100 nM); 118% (Table 4, 300 nM).
Regarding “24449 (GCACGTCTGGCCGGGATT; chemistry not given here) [compound 24449]”, for the setting “A375 cells”, the “% Control (integrin α4 protein)” value is 61% and the “% Inhib (integrin α4 protein)” value was 39%.
For “24448 (ACTGAAGCGTTGGCGAGC; chemistry not given here) [compound 24448]”, in that order: 55% and 45%.
The matching figures for “24464 (TTTGTTTCCATTGCATTC; chemistry not given here) [compound 24464]”: 62% and 38%.
On to “107247 (antisense AAGAAGTCCTTAATCATCAT; chemistry not given here) [compound 107247]”, for which, under setting [1], the “% Control” value was found to be 65% and the “% Inhib.” value was 35%.
As to “26644 (TTTCCATTCTCTCAATTTGA; phosphorothioate, 2'-MOE/deoxy, further chemistry not given here) [compound 26644]”, for the setting “dose not stated”, the “inhibition (Example 11)” value is not below 40%. Besides, the “% Control” value (Table 6, 10 nM) is reported as 99%; the “% Control” value (Table 6, 30 nM) is recorded as 94%; the “% Control” value (Table 6, 100 nM) was 78%; the “% Control” value (Table 6, 300 nM) is listed as 48%. In addition, the “% Inhib.” value is, setting by setting: (Table 6, 100 nM) 22%; (Table 6, 300 nM (highest dose)) 52%.
As to “24452 (GGATCCATTTTCTCCTGG; chemistry not given here) [compound 24452]”, under “A375 cells”, the “% Control (integrin α4 protein)” value was 60% and the “% Inhib (integrin α4 protein)” value amounted to 40%.
With “107230 (antisense AGACTCGCGTCCTGGCCCGG; chemistry not given here) [compound 107230]”, under setting [1], the “% Control” value worked out at 73% and the “% Inhib.” value was determined as 27%.
For the substance “24442 (ATGAGGCGCAGCGTGTCC; chemistry not given here) [compound 24442]”, under “A375 cells”, the “% Control (integrin α4 protein)” value stood at 82% and the “% Inhib (integrin α4 protein)” value was found to be 18%.
As to “107238 (antisense TCCTTGCCCTTATATGAGAA; chemistry not given here) [compound 107238]”, the “% Control” value under setting [1] came to 49%.
As for “24460 (TTTCATGTAAGATATTTA; chemistry not given here) [compound 24460]”, the “% Control (integrin α4 protein)” value (A375 cells) stood at 94%.
On to “24444 (GGAACATTCAACACTAAG; chemistry not given here) [compound 24444]”, for which, under “A375 cells”, the “% Control (integrin α4 protein)” value turned out to be 68% and the “% Inhib (integrin α4 protein)” value was 32%.
With “24743 (GAAGGCCCCTGGGGAACATT; phosphorothioate, 2'-MOE, 5-methyl-C, further chemistry not given here) [compound 24743]”, the “% Control” value reads like this: (Table 4, 10 nM) 96%; (Table 4, 30 nM) 121%; (Table 4, 100 nM) 117%; (Table 4, 300 nM) 105%.
For “24467 (TCATCTTCTTGTGGAGCT; chemistry not given here) [compound 24467]”, the “% Control (integrin α4 protein)” value (A375 cells) is given as 101%.
On the same count and under the same terms, under “24441 (CCTGGGATGCCGCGCACT; chemistry not given here) [compound 24441]” stands 112%.
“107249 (antisense CTTGTAAACAGTGTCTTTTA; chemistry not given here) [compound 107249]”: under setting [1], the “% Control” value was 38%.
In the case of “107258 (antisense TTAAAGTGATAATGGTCCAC; chemistry not given here) [compound 107258]”, the “% Control” value under setting [1] is 39%.
On the same count and under the same terms, in the case of “107243 (antisense CCAGCCTTCCACATAACATA; chemistry not given here) [compound 107243]” it was 39%; in that of “107235 (antisense TCGCTTCCCAAGCCATGCGC; chemistry not given here) [compound 107235]”, 36%.
The same measure, in the same setting: in the case of “107244 (antisense AGGATAGATTTGTATTGTCT; chemistry not given here) [compound 107244]” it was 37%; in that of “107237 (antisense CGCGCCTCGCTTCCCAAGCC; chemistry not given here) [compound 107237]”, 46%.

These data come from US6258790A, “Antisense modulation of integrin α4 expression” (Isis Pharmaceuticals, Inc., priority 1999, dated 2001).
